# Measured values as given in patent US11642339B2 (THERAVANCE BIOPHARMA R&D IP, LLC, priority 2017, dated 2023).
# Values joined by “and” are separate entries in the source; they are usually repeats but may differ in a detail not shown here. Identical values can stand only once. Like-named read-outs stand apart in the source and are kept apart here.
# Key:
# [1] = tested on: subjects with diabetic or idiopathic gastroparesis; assay: DIGEST I Phase 2b: weekly GCSI-24H total score;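 further: Patient-reported daily electronic-diary symptom index rating nausea/vomiting, postprandial fullness/early satiety and bloating, averaged weekly, once-daily oral capsule taken before breakfast, baseline from 1-week pretreatment period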
# From the text: The total duration of study participation for each completed subject was approximately 19 weeks including: • Screening period: up to 5 weeks, including one week baseline period; • Treatment period: 12 weeks; and • Follow-up: 2 weeks.
# To qualify for entry into the Baseline Period of the study, subjects had to have: a) a composite score of 2 and <5 points on nausea, bloating, feeling excessively full after meals, and not able to finish a normal-sized meal on the GCS1-2W; b) a score of ≥3 points for at least 2 of these 4 symptoms on the GCS1-2W at Screening; and c) delayed gastric emptying as determined by either a 4-hour ^99mTc GES or GEBT. If a subject failed either the GES or GEBT at Screening, then a second gastric emptying test could have been performed during the Screening Period using the GEBT in order to qualify for the study. Subjects who were eligible for further study participation completed the 2 daily PRO measures (the Gastroparesis Rating Scale [GRS] and a daily version of the GCSI, designated the Gastroparesis Cardinal Symptoms Index—24-Hour Recall [GCS1-24H] in this study) over a 7-day period to establish baselines.
# After the 1-week Baseline Period, subjects were required to have a 7-day mean score of ≥2.5 and <5 points on the GCS.1-24H at Day 1 to be eligible for entry. Eligible subjects completed the Patient Assessment of Upper Gastrointestinal Quality of Life (PAG1-QOL) questionnaire to establish baseline QOL metrics at Day 1.
# During the treatment period, subjects were instructed to take 1 capsule of study drug once daily approximately 30 minutes prior to eating at approximately the same time each morning and to record the time of drug ingestion in the electronic diary. Subjects also completed the GCS1-24H and GRS on a daily basis using an electronic diary. At specified times, subjects also completed the PAG1-QOL questionnaire to assess QOL metrics and the Treatment Satisfaction Questionnaire. In addition, subjects and clinicians completed the Overall Treatment Effect (OTE) and Overall Gastroparesis Severity (OGS) instruments to serve as anchor instruments for the psychometric evaluation of the GRS measure. Subjects returned to the study center for safety and efficacy assessments as detailed in the Schedule of Study Procedures.
# A total score was used to assess the GCSI PRO, which comprised a mean of 3 means symptoms domain score.
# Each individual domain was evaluated. […] LS Mean Differences in each subgroup are calculated based on repeated measures mixed effect model with change from baseline in weekly GCSI-24H total score as dependent variable, treatment, gastroparesis type (diabetic vs. idiopathic), GE test time (historical vs. prospective), baseline GCSI 24H total score, time, subgroup variable, interaction effect of treatment by time, baseline GCSI 24H total score by time, treatment by subgroup variable, time by subgroup variable and treatment by time by subgroup variable as fixed effect, a random effect of subject within site, using an unstructured covariance structure. For GCSI baseline subgroup analysis, baseline 24H total score is replaced with GCSI baseline categorical variable.
# [2] = tested on: subjects with diabetic or idiopathic gastroparesis
# From the text: A daily proprietary patient reported outcome (PRO) tool was used to assess GP symptoms, the Gastroparesis Rating Scale (GRS), developed according to the current FDA PRO guidance. The GRS covers the following cardinal symptom domains: (1) nausea, (2) vomiting, (3) postprandial fullness/early satiety, (4) bloating, (5) upper abdominal pain, (6) gastric reflux/burning, and (7) bowel movements. The GRS symptom domains may be also categorized or grouped into Factor 1 (fullness, early satiety, bloating, upper abdominal pain, and epigastric burning) and Factor 2 (nausea and vomiting).
# GRS Factor 1 (also Summary Score 1) comprised fullness/early satiety, bloating, upper abdominal pain, and epigastric burning domains, whereas GRS Factor 2 (also Summary Score 2) comprised nausea and vomiting domains.
# After the psychometric evaluation the GRS was summarized using two summary scores: Summary Score 1 combined the fullness/early satiety, bloating, upper abdominal pain, and epigastric burning domains and Summary Score 2 combined the nausea and vomiting domains.
# [3] = 5 mg/day, Week 4, diabetic patients
# [4] = 5 mg/day, Week 4, idiopathic patients
# [5] = 5 mg/day, Week 8, diabetic patients
# [6] = 5 mg/day, Week 8, idiopathic patients
# [7] = 5 mg/day, Week 12, diabetic patients
# [8] = 5 mg/day, Week 12, idiopathic patients
# [9] = 5 mg/day, Week 14 (off therapy), diabetic patients
# [10] = 5 mg/day, Week 14 (off therapy), idiopathic patients
# [11] = 15 mg/day, Week 4, diabetic patients
# [12] = 15 mg/day, Week 4, idiopathic patients
# [13] = 15 mg/day, Week 8, diabetic patients
# [14] = 15 mg/day, Week 8, idiopathic patients
# [15] = 15 mg/day, Week 12, diabetic patients
# [16] = 15 mg/day, Week 12, idiopathic patients
# [17] = 15 mg/day, Week 14 (off therapy), diabetic patients
# [18] = 15 mg/day, Week 14 (off therapy), idiopathic patients
# [19] = 30 mg/day, Week 4, diabetic patients
# [20] = 30 mg/day, Week 4, idiopathic patients
# [21] = 30 mg/day, Week 8, diabetic patients
# [22] = 30 mg/day, Week 12, diabetic patients
# [23] = 30 mg/day, Week 12, idiopathic patients
# [24] = 30 mg/day, Week 14 (off therapy), diabetic patients
# [25] = 30 mg/day, Week 14 (off therapy), idiopathic patients
# [26] = 5 mg/day, Week 4, diabetic gastroparesis population
# [27] = 5 mg/day, Week 4, idiopathic gastroparesis population
# [28] = 5 mg/day, Week 8, diabetic gastroparesis population
# [29] = 5 mg/day, Week 8, idiopathic gastroparesis population
# [30] = 15 mg/day, Week 4, diabetic gastroparesis population
substance,measurement,setting,value
"1-isopropyl-2-oxo-1,2-dihydroquinoline-3-carboxylic acid {(1S,3R,5R)-8-[(R)-2-hydroxy-3-(methanesulfonyl-methyl-amino)propyl]-8-azabicyclo[3.2.1]oct-3-yl}amide [Velusetrag]","LS Mean Difference vs placebo, weekly GCSI-24H total score","[1]; 5 mg/day, Week 4, ITT",−0.4 points
same,"LS Mean change from baseline, weekly GCSI-24H total score","[1]; 5 mg/day, Week 4, ITT",−1.5 (0.13) points
same,"LS Mean Difference vs placebo, weekly GCSI-24H total score","[1]; 5 mg/day, Week 4, ITT, listed as VEL",−0.4 (0.18) points
same,"LS Mean Difference vs placebo, weekly GCSI-24H total score",[1]; [3],−0.2 (0.25) points
same,"LS Mean change from baseline, weekly GCSI-24H total score",[1]; [3],−1.5 (0.18) points
same,"LS Mean Difference vs placebo, weekly GCSI-24H total score",[1]; [4],−0.6 (0.26) points
same,"LS Mean change from baseline, weekly GCSI-24H total score",[1]; [4],−1.5 (0.18) points
same,"LS Mean Difference vs placebo, weekly GCSI-24H total score","[1]; 5 mg/day, Week 8, ITT",−0.3 (0.20) points
same,"LS Mean change from baseline, weekly GCSI-24H total score","[1]; 5 mg/day, Week 8, ITT",−1.6 (0.14) points
same,"LS Mean Difference vs placebo, weekly GCSI-24H total score",[1]; [5],−0.1 (0.27) points
same,"LS Mean change from baseline, weekly GCSI-24H total score",[1]; [5],−1.6 (0.19) points
same,"LS Mean Difference vs placebo, weekly GCSI-24H total score",[1]; [6],−0.6 (0.28) points
same,"LS Mean change from baseline, weekly GCSI-24H total score",[1]; [6],−1.6 (0.20) points
same,"LS Mean Difference vs placebo, weekly GCSI-24H total score","[1]; 5 mg/day, Week 12, ITT",−0.3 points
same,"LS Mean change from baseline, weekly GCSI-24H total score","[1]; 5 mg/day, Week 12, ITT",−1.7 (0.15) points
same,"LS Mean Difference vs placebo, weekly GCSI-24H total score","[1]; 5 mg/day, Week 12, ITT, listed as VEL",−0.3 (0.21) points
same,"LS Mean Difference vs placebo, weekly GCSI-24H total score",[1]; [7],−0.0 (0.29) points
same,"LS Mean change from baseline, weekly GCSI-24H total score",[1]; [7],−1.7 (0.21) points
same,"LS Mean Difference vs placebo, weekly GCSI-24H total score",[1]; [8],−0.6 (0.30) points
same,"LS Mean change from baseline, weekly GCSI-24H total score",[1]; [8],−1.7 (0.21) points
same,"LS Mean Difference vs placebo, weekly GCSI-24H total score",[1]; [9],−0.2 (0.29) points
same,"LS Mean change from baseline, weekly GCSI-24H total score",[1]; [9],−1.7 (0.20) points
same,"LS Mean Difference vs placebo, weekly GCSI-24H total score",[1]; [10],−0.4 (0.30) points
same,"LS Mean change from baseline, weekly GCSI-24H total score",[1]; [10],−1.4 (0.21) points
same,"LS Mean Difference vs placebo, weekly GCSI-24H total score","[1]; 15 mg/day, Week 4, ITT",−0.1 (0.19) points
same,"LS Mean change from baseline, weekly GCSI-24H total score","[1]; 15 mg/day, Week 4, ITT",−1.2 (0.14) points
same,"LS Mean Difference vs placebo, weekly GCSI-24H total score",[1]; [11],0.1 points
same,"LS Mean change from baseline, weekly GCSI-24H total score",[1]; [11],−1.2 points
same,"LS Mean Difference vs placebo, weekly GCSI-24H total score",[1]; [12],−0.3 (0.28) points
same,"LS Mean change from baseline, weekly GCSI-24H total score",[1]; [12],−1.2 (0.20) points
same,"LS Mean Difference vs placebo, weekly GCSI-24H total score","[1]; 15 mg/day, Week 8, ITT",−0.1 (0.21) points
same,"LS Mean change from baseline, weekly GCSI-24H total score","[1]; 15 mg/day, Week 8, ITT",−1.3 (0.15) points
same,"LS Mean Difference vs placebo, weekly GCSI-24H total score",[1]; [13],0.3 points
same,"LS Mean change from baseline, weekly GCSI-24H total score",[1]; [13],−1.2 points
same,"LS Mean Difference vs placebo, weekly GCSI-24H total score",[1]; [14],−0.4 (0.30) points
same,"LS Mean change from baseline, weekly GCSI-24H total score",[1]; [14],−1.5 (0.22) points
same,"LS Mean Difference vs placebo, weekly GCSI-24H total score","[1]; 15 mg/day, Week 12, ITT",−0.0 (0.22) points
same,"LS Mean change from baseline, weekly GCSI-24H total score","[1]; 15 mg/day, Week 12, ITT",−1.4 (0.16) points
same,"LS Mean Difference vs placebo, weekly GCSI-24H total score",[1]; [15],0.4 points
same,"LS Mean change from baseline, weekly GCSI-24H total score",[1]; [15],−1.3 points
same,"LS Mean Difference vs placebo, weekly GCSI-24H total score",[1]; [16],−0.4 (0.32) points
same,"LS Mean change from baseline, weekly GCSI-24H total score",[1]; [16],−1.5 (0.24) points
same,"LS Mean Difference vs placebo, weekly GCSI-24H total score",[1]; [17],0.4 points
same,"LS Mean change from baseline, weekly GCSI-24H total score",[1]; [17],−1.1 points
same,"LS Mean Difference vs placebo, weekly GCSI-24H total score",[1]; [18],−0.1 (0.31) points
same,"LS Mean change from baseline, weekly GCSI-24H total score",[1]; [18],−1.2 (0.23) points
same,"LS Mean Difference vs placebo, weekly GCSI-24H total score","[1]; 30 mg/day, Week 4, ITT",0.1 (0.19) points
same,"LS Mean change from baseline, weekly GCSI-24H total score","[1]; 30 mg/day, Week 4, ITT",−1.0 (0.13) points
same,"LS Mean Difference vs placebo, weekly GCSI-24H total score",[1]; [19],0.2 points
same,"LS Mean change from baseline, weekly GCSI-24H total score",[1]; [19],−1.0 points
same,"LS Mean Difference vs placebo, weekly GCSI-24H total score",[1]; [20],−0.1 (0.26) points
same,"LS Mean change from baseline, weekly GCSI-24H total score",[1]; [20],−1.0 (0.18) points
same,"LS Mean Difference vs placebo, weekly GCSI-24H total score","[1]; 30 mg/day, Week 8, ITT",−0.0 (0.20) points
same,"LS Mean change from baseline, weekly GCSI-24H total score","[1]; 30 mg/day, Week 8, ITT",−1.3 (0.14) points
same,"LS Mean Difference vs placebo, weekly GCSI-24H total score",[1]; [21],0.2 points
same,"LS Mean change from baseline, weekly GCSI-24H total score",[1]; [21],−1.3 points
same,"LS Mean Difference vs placebo, weekly GCSI-24H total score","[1]; 30 mg/day, Week 8, idiopathic patients",−0.2 (0.29) points
same,"LS Mean Difference vs placebo, weekly GCSI-24H total score","[1]; 30 mg/day, Week 12, ITT",−0.1 (0.22) points
same,"LS Mean change from baseline, weekly GCSI-24H total score","[1]; 30 mg/day, Week 12, ITT",−1.5 (0.15) points
same,"LS Mean Difference vs placebo, weekly GCSI-24H total score",[1]; [22],0.1 points
same,"LS Mean change from baseline, weekly GCSI-24H total score",[1]; [22],−1.6 points
same,"LS Mean Difference vs placebo, weekly GCSI-24H total score",[1]; [23],−0.2 (0.30) points
same,"LS Mean change from baseline, weekly GCSI-24H total score",[1]; [23],−1.3 (0.21) points
same,"LS Mean Difference vs placebo, weekly GCSI-24H total score",[1]; [24],−0.1 points
same,"LS Mean change from baseline, weekly GCSI-24H total score",[1]; [24],−1.7 points
same,"LS Mean Difference vs placebo, weekly GCSI-24H total score",[1]; [25],0.0 (0.29) points
same,"LS Mean change from baseline, weekly GCSI-24H total score",[1]; [25],−1.0 (0.20) points
same,"LS Mean Difference vs placebo, GRS Summary Score 1 (Factor 1)","[2]; 5 mg/day, Week 4, ITT",−0.4 points and −0.4 (0.16) points
same,"LS Mean change from baseline, GRS Summary Score 1 (Factor 1)","[2]; 5 mg/day, Week 4, ITT",−1.3 (0.11) points
same,"LS Mean Difference vs placebo, GRS Summary Score 1 (Factor 1)",[2]; [26],−0.3 (0.22) points
same,"LS Mean change from baseline, GRS Summary Score 1 (Factor 1)",[2]; [26],−1.2 (0.16) points
same,"LS Mean Difference vs placebo, GRS Summary Score 1 (Factor 1)",[2]; [27],−0.5 (0.23) points
same,"LS Mean change from baseline, GRS Summary Score 1 (Factor 1)",[2]; [27],−1.3 (0.16) points
same,"LS Mean Difference vs placebo, GRS Summary Score 1 (Factor 1)","[2]; 5 mg/day, Week 8, ITT",−0.3 (0.18) points
same,"LS Mean change from baseline, GRS Summary Score 1 (Factor 1)","[2]; 5 mg/day, Week 8, ITT",−1.4 (0.13) points
same,"LS Mean Difference vs placebo, GRS Summary Score 1 (Factor 1)",[2]; [28],−0.2 (0.25) points
same,"LS Mean change from baseline, GRS Summary Score 1 (Factor 1)",[2]; [28],−1.4 (0.18) points
same,"LS Mean Difference vs placebo, GRS Summary Score 1 (Factor 1)",[2]; [29],−0.4 (0.26) points
same,"LS Mean change from baseline, GRS Summary Score 1 (Factor 1)",[2]; [29],−1.4 (0.18) points
same,"LS Mean Difference vs placebo, GRS Summary Score 1 (Factor 1)","[2]; 5 mg/day, Week 12, ITT",−0.4 points and −0.4 (0.19) points
same,"LS Mean change from baseline, GRS Summary Score 1 (Factor 1)","[2]; 5 mg/day, Week 12, ITT",−1.5 (0.13) points
same,"LS Mean Difference vs placebo, GRS Summary Score 1 (Factor 1)","[2]; 15 mg/day, Week 4, ITT",−0.2 (0.17) points
same,"LS Mean change from baseline, GRS Summary Score 1 (Factor 1)","[2]; 15 mg/day, Week 4, ITT",−1.1 (0.12) points
same,"LS Mean Difference vs placebo, GRS Summary Score 1 (Factor 1)",[2]; [30],−0.2 points
same,"LS Mean change from baseline, GRS Summary Score 1 (Factor 1)",[2]; [30],−1.2 points
